Test results as given in ChEMBL document CHEMBL1138410, “SAR studies of 3-arylpropionic acids as potent and selective agonists of sphingosine-1-phosphate receptor-1 (S1P1) with enhanced pharmacokinetic properties” (Bioorg Med Chem Lett, 2007).
“And” between values parts separate entries of the source, which are not always exact repeats. Identical values can stand only once.

Tests used:
[1] = target: Sphingosine 1-phosphate receptor 1 (Homo sapiens, UniProt P21453); test: […] of [35S]GTPgammaS from human S1P1 receptor expressed in CHO cells; assay type: functional, cell-based
Sequence of Sphingosine 1-phosphate receptor 1 (P21453 whole entry): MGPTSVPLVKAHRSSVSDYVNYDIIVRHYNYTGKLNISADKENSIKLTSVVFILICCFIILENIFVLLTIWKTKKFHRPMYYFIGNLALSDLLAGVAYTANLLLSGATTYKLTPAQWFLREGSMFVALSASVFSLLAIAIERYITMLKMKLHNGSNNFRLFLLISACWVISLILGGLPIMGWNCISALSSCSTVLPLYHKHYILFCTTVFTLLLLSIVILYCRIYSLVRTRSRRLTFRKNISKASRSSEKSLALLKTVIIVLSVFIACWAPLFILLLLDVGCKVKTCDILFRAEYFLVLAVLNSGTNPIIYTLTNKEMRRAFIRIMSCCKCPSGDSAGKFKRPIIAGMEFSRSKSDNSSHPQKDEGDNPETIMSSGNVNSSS

Mus musculus = test: Effect on peripheral lymphocyte lowering in orally dosed mouse; assay type: functional
[2] = target: Sphingosine 1-phosphate receptor 2 (Homo sapiens, UniProt O95136); test: Displacement of [33P]S1P from human S1P2 receptor expressed in CHO cells; assay type: cell-based
Sequence of Sphingosine 1-phosphate receptor 2 (O95136 whole entry): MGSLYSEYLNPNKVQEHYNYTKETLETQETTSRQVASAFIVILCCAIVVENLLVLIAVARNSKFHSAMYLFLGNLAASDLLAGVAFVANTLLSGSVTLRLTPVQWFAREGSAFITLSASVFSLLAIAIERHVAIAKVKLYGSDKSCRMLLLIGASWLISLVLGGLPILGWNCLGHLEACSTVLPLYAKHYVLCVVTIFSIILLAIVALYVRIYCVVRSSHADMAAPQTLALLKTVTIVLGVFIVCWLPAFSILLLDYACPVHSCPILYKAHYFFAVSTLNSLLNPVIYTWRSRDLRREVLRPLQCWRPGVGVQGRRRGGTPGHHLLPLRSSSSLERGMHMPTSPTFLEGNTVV

[3] = target: T1, Sphingosine 1-phosphate receptor 4 (Homo sapiens, UniProt O95977); test: Displacement of [33P]S1P from human S1P4 receptor expressed in CHO cells; assay type: cell-based
T1 sequence (O95977 whole entry): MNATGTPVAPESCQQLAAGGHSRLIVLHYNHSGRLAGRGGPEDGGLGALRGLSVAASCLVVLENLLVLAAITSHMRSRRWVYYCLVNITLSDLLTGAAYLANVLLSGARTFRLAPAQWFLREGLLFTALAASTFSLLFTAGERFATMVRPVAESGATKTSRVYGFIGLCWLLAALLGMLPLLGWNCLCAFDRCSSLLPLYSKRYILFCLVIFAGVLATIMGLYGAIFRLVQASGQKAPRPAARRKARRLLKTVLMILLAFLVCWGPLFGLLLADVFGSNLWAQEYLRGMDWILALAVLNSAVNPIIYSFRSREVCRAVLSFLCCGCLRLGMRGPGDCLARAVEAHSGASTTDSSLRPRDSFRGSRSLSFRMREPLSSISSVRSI

[4] = target: Sphingosine 1-phosphate receptor 3 (Homo sapiens, UniProt Q99500); test: […] of [35S]GTP-gamma-S from human S1P3 receptor expressed in CHO cells; assay type: functional, cell-based
Sequence of Sphingosine 1-phosphate receptor 3 (Q99500 whole entry): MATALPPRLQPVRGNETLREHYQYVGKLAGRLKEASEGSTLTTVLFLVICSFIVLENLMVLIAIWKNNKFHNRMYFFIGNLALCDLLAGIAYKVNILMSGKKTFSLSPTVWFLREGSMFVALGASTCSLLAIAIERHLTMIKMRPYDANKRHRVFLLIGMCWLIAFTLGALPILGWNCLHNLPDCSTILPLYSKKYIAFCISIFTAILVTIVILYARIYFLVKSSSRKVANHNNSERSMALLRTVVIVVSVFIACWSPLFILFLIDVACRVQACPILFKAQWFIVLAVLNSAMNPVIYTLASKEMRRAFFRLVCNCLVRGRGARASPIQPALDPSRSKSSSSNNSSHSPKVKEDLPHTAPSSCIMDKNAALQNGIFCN

[5] = target: Sphingosine 1-phosphate receptor 5 (Homo sapiens, UniProt Q9H228); test: […] of [35S]GTP-gamma-S from human S1P5 receptor expressed in CHO cells; assay type: functional, cell-based
Sequence of Sphingosine 1-phosphate receptor 5 (Q9H228 whole entry): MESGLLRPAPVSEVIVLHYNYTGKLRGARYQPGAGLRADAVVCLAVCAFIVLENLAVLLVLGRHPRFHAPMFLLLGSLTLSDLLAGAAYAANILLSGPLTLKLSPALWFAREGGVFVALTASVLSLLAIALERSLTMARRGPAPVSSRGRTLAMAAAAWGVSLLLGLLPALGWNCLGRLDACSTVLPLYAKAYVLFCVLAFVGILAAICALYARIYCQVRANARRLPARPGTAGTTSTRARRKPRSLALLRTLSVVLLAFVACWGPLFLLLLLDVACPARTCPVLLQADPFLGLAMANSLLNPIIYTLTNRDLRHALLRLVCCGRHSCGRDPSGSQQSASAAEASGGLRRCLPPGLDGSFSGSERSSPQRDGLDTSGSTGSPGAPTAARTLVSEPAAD

[6] = Plasma clearance in Sprague-Dawley rat at 1.0 mg/kg, iv or 2.0 mg/kg, po; assay type: ADME, organism-based
[7] = (§1) Volume of distribution at steady state in Sprague-Dawley rat at 1.0 mg/kg, iv or 2.0 mg/kg, po; assay type: ADME, organism-based; details: Sprague-Dawley, in vivo, read-out: Vdss
[8] = (§2) Half life in Sprague-Dawley rat at 1.0 mg/kg, iv or 2.0 mg/kg, po; assay type: ADME, organism-based; details: Sprague-Dawley, in vivo
[9] = (§3) Bioavailability in Sprague-Dawley rat at 2.0 mg/kg, po; assay type: ADME, organism-based; details: Sprague-Dawley, in vivo
Rattus norvegicus [10] = test: as §1; assay type: ADME, organism-based; details: in vivo
Rattus norvegicus [11] = test: as §2; assay type: ADME, organism-based; details: in vivo
Rattus norvegicus [12] = test: as §3; assay type: ADME, organism-based; details: in vivo
[13] = Mus musculus, po, read-out: ED50

Row | SMILES | EC50 [1] | IC50 [2] | IC50 [3] | EC50 [4] | EC50 [5] | clearance [6] | Vd [7] | half-life [8] | bioavailability [9] | Vdss (Rattus norvegicus [10]) | t1/2 (Rattus norvegicus [11]) | F (Rattus norvegicus [12]) | ED50 (Mus musculus; [13]) | ED50 (Mus musculus)
1 | Cc1nc(CCC(=O)O)ccc1-c1noc(-c2ccc(OC(C)C)c(C#N)c2)n1 | 0.44 nM | > 10000 nM | > 10000 nM | 2760 nM | 28.6 nM | 1.2 mL/min/kg | 0.3 L/kg | 2.4 h | 93% |  |  |  | 0.2 mg/kg | 
2 | Cc1cc([C@H]2C[C@H]2C(=O)O)ccc1-c1noc(-c2ccc(OC(C)C)c(C#N)c2)n1 | 0.8 nM | > 10000 nM | > 10000 nM | > 1000 nM | 37.7 nM | 1.2 mL/min/kg | 0.7 L/kg | 7.4 h | 89% |  |  |  | 0.7 mg/kg | 
3 | Cc1cc([C@@H]2C[C@H]2C(=O)O)ccc1-c1noc(-c2ccc(OC(C)C)c(C#N)c2)n1 | 0.93 nM and 0.31 nM | > 10000 nM | > 10000 nM | 2660 nM and 2600 nM and > 10000 nM |  |  |  | 4.9 h | 84% | 1 L/kg and 0.4 L/kg | 5.9 h | 90% | 0.3 mg/kg | 0.2 mg/kg
4 | Cc1cc([C@@H]2C[C@H]2C(=O)O)ccc1-c1noc(-c2ccc(OC(C)C)c(C(F)(F)F)c2)n1 |  | > 10000 nM | > 10000 nM | 123 nM | 5.1 nM | 2.4 mL/min/kg | 1.1 L/kg | 6.3 h | 88% |  |  |  | 0.2 mg/kg | 

Second part, led by results:

Row | EC50 [1] | IC50 [2] | IC50 [3] | EC50 [4] | EC50 [5] | clearance [6] | Vd [7] | half-life [8] | bioavailability [9] | Vdss (Rattus norvegicus [10]) | t1/2 (Rattus norvegicus [11]) | F (Rattus norvegicus [12]) | SMILES | ED50 (Mus musculus; [13]) | ED50 (Mus musculus)
5 | 0.08 nM | > 10000 nM | > 10000 nM |  |  |  |  |  |  |  |  |  | Cc1cc(CCC(=O)O)ccc1-c1noc(-c2ccc(OC(C)C)c(C(F)(F)F)c2)n1 | 0.3 mg/kg | 
6 | 0.08 nM | > 10000 nM | > 10000 nM |  |  |  |  |  |  |  |  |  | Cc1cc(CCC(=O)O)ccc1-c1noc(-c2ccc(OC(C)C)c(C#N)c2)n1 | 0.1 mg/kg | 
7 | 0.3 nM | > 10000 nM | > 10000 nM | 400 nM | 9.9 nM | 7 mL/min/kg | 1.5 L/kg | 1.7 h | 82% |  |  |  | Cc1cc(CC(C)C(=O)O)ccc1-c1noc(-c2ccc(OC(C)C)c(C(F)(F)F)c2)n1 (stereo not drawn) | 0.1 mg/kg | 
8 | 0.12 nM | > 10000 nM | > 10000 nM | 184 nM | 3.9 nM | 2.9 mL/min/kg | 0.6 L/kg | 3.1 h | 100% |  |  |  | Cc1cc(C(C)CC(=O)O)ccc1-c1noc(-c2ccc(OC(C)C)c(C(F)(F)F)c2)n1 (stereo not drawn) | 0.1 mg/kg | 
